From US6884820B2, “5,6,7,8-tetrahydronaphthalen-2-yl-7-fluoroalkyl-heptatrienoic acid derivatives having serum glucose reducing activity” (Allergan, Inc., priority 2003, dated 2005)

How the values were obtained:
RARβ [1] = molecular target: T1, RARβ (Homo sapiens, UniProt P10826); assay: chimeric receptor transactivation assay, RARβ; conditions: for RAR β transactivation efficacy as a percentage compared to the standard compound: value in parentheses, relative to standard compound of U.S. Pat. No. 6,114,533
T1 sequence (P10826 183-417 limits assumed): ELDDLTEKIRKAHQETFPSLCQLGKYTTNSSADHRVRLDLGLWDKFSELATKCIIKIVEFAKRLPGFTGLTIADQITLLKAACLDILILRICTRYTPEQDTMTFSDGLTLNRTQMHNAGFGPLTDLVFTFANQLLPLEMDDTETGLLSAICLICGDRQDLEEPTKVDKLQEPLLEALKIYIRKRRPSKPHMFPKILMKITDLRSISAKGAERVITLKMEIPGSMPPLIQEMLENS

RARα = molecular target: T2, RARα (Homo sapiens, UniProt P10276); assay: ligand binding assay, RARα
T2 sequence (P10276 1-462): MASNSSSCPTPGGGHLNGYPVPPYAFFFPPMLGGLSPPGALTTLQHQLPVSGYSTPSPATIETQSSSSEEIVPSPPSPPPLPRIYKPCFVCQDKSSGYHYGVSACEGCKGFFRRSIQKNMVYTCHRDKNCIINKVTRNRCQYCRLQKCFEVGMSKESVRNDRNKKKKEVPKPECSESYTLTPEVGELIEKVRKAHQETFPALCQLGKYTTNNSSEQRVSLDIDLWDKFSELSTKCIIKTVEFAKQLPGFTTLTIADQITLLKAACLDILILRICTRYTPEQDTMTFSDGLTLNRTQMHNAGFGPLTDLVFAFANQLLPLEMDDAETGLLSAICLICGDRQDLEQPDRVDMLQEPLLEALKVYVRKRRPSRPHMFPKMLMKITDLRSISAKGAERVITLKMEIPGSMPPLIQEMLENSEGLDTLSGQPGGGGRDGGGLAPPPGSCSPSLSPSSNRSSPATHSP

RARγ [2] = molecular target: T3, RARγ (Homo sapiens, UniProt P13631); assay: ligand binding assay, RARγ
T3 sequence (P13631 1-454): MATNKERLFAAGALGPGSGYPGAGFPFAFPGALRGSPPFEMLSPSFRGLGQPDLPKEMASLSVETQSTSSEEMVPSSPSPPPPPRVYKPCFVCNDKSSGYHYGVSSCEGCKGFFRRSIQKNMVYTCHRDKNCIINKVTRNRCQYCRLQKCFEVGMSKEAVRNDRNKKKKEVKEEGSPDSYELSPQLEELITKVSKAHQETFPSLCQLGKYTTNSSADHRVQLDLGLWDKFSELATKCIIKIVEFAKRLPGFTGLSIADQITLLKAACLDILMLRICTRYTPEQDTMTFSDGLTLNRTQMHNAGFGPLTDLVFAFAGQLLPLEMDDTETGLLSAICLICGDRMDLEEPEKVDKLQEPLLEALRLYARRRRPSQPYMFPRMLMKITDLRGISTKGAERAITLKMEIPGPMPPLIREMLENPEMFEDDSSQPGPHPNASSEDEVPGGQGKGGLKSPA

RXRα [3] = molecular target: T4, RXRα (Homo sapiens, UniProt P19793); assay: ligand binding assay, RXRα
T4 sequence (P19793 1-462): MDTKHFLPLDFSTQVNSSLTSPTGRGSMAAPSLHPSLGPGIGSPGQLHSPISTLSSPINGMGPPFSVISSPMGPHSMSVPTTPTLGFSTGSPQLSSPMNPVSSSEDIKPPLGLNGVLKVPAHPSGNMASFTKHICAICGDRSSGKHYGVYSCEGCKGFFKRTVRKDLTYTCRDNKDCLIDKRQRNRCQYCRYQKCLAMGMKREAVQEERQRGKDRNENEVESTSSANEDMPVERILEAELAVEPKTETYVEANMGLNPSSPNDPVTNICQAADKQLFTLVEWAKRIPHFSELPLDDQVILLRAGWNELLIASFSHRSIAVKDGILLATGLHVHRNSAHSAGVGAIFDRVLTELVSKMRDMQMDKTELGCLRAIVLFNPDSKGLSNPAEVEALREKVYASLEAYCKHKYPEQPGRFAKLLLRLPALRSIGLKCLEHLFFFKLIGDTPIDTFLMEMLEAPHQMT

RXRγ = molecular target: T5, RXRγ (Homo sapiens, UniProt P48443); assay: holoreceptor transactivation assay, RXRγ; conditions: for RXR γ transactivation efficacy as a percentage compared to the standard compound: value in parentheses, relative to standard compound of U.S. Pat. No. 6,114,533
T5 sequence (P48443 1-463): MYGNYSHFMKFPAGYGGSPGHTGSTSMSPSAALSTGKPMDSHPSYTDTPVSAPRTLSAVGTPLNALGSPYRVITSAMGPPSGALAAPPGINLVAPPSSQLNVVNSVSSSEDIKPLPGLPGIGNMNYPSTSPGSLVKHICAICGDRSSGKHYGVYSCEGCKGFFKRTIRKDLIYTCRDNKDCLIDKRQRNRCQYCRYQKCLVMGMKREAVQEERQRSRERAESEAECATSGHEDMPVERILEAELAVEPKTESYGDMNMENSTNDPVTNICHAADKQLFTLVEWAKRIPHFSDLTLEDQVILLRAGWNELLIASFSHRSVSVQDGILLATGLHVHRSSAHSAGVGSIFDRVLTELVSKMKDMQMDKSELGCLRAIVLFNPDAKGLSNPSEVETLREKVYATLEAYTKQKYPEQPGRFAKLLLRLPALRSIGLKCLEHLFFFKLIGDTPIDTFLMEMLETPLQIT

RXRβ [4] = molecular target: T6, RXRβ (Homo sapiens, UniProt P28702); assay: holoreceptor transactivation assay, RXRβ; conditions: for RXR β transactivation efficacy as a percentage compared to the standard compound: value in parentheses, relative to standard compound of U.S. Pat. No. 6,114,533
T6 sequence (P28702 1-533): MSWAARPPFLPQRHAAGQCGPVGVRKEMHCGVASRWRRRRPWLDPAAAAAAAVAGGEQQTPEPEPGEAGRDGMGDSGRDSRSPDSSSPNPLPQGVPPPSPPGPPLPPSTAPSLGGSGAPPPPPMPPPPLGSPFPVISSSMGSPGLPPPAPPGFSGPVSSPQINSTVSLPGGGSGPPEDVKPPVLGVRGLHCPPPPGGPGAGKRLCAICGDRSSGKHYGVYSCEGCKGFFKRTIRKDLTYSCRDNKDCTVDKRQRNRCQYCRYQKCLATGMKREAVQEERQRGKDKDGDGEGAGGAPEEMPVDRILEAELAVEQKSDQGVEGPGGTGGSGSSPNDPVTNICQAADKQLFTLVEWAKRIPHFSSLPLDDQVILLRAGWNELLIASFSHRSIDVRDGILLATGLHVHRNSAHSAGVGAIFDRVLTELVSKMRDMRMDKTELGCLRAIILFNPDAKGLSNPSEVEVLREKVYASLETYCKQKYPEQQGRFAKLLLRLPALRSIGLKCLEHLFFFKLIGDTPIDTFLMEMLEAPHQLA

RARγ [5] = molecular target: T7, RARγ (Homo sapiens, UniProt P13631); assay: chimeric receptor transactivation assay, RARγ
T7 sequence (P13631 185-419 limits assumed): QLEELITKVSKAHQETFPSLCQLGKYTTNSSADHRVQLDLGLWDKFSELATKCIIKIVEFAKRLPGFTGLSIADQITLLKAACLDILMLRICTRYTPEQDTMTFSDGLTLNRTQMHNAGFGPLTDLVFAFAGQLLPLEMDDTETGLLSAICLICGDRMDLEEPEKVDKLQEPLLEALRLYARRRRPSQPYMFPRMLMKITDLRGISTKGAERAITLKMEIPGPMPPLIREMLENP

RXRα [6] = molecular target: T4, RXRα; assay: holoreceptor transactivation assay, RXRα; conditions: for RXR α transactivation efficacy as a percentage compared to the standard compound: value in parentheses, relative to standard compound of U.S. Pat. No. 6,114,533
RARβ [7] = molecular target: T8, RARβ (Homo sapiens, UniProt P10826); assay: ligand binding assay, RARβ
T8 sequence (P10826 1-455): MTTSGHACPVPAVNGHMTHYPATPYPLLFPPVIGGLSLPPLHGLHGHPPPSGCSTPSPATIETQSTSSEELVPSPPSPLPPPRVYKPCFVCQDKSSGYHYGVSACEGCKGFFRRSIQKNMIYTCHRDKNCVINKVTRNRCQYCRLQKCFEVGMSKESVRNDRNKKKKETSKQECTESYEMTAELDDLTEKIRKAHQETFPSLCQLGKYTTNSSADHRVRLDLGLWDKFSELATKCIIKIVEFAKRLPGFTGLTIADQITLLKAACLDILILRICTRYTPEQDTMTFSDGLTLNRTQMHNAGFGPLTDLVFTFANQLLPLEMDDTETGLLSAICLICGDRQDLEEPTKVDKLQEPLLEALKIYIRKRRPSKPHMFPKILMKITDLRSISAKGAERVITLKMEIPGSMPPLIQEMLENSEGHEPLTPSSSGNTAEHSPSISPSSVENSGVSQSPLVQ

RXRβ [8] = molecular target: T6, RXRβ; assay: ligand binding assay, RXRβ
[9] = system: Female diabetic db/db mice; assay: serum glucose, triglyceride and thyroxine levels in female db/db mice; conditions: for Glucose Day 0 / Triglycerides Day 0: Day 0 (pre-treatment), female db/db mice, group later given standard compound 5 mg/kg or Compound 6 50 mg/kg by oral gavage; for Glucose Day 3, 3 h / Triglycerides Day 3, 3 h / Glucose Day 6, 3 h: oral gavage daily
[10] = standard compound 5 mg/kg, Compound 6 50 mg/kg

Row | EC50 (RARβ [1]) [nM] | RAR β transactivation efficacy as a percentage compared to the standard compound (RARβ [1]) [%] | Ki (RARα) [nM] | Ki (RARγ [2]) [nM] | Ki (RXRα [3]) [nM] | EC50 (RXRγ) [nM] | RXR γ transactivation efficacy as a percentage compared to the standard compound (RXRγ) [%] | EC50 (RXRβ [4]) [nM] | RXR β transactivation efficacy as a percentage compared to the standard compound (RXRβ [4]) [%] | EC50 (RXRα [6]) [nM] | RXR α transactivation efficacy as a percentage compared to the standard compound (RXRα [6]) [%] | Ki (RARβ [7]) [nM] | Ki (RXRβ [8]) [nM] | Compound | Glucose Day 0 [9] [mg/dL] | Triglycerides Day 0 [9] [mg/dL] | Glucose Day 3, 3 h [9, 10] [mg/dL] | Triglycerides Day 3, 3 h [9, 10] [mg/dL] | Glucose Day 6, 3 h [9, 10] [mg/dL] | also measured
1 | – | – | – | – | – | – | – | – | – | – | – | – | – | CC(/C=C/[C@@H]1C[C@]1(C)c1ccc2c(c1)C(C)(C)CCC2(C)C)=C\C(=O)O [Standard compound] | 526 ± 135 | 290 ± 55 | 444 ± 125 | 590 ± 422 | 399 ± 128 | T4 Day 7 ([9]; Day 7, oral gavage daily for seven days, standard compound 5 mg/kg, Compound 6 50 mg/kg): 1.5 ± 0.6 µg/dL; effect on serum thyroxine levels ([9]; diabetic mammals): reducing serum thyroxine levels
2 | 150 | 32 | 504 | 1200 | 66 | 2 | 121 | 5 | 111 | 0.6 | 112 | 484 | 423 | COc1cc2c(cc1C(=C/C=C/C(C)=C/C(=O)O)C(F)(F)F)C(C)(C)CCC2(C)C (stereo in doubt) [Compound 5, (2E,4E,6Z)-8,8,8-Trifluoro-7-(3-methoxy-5,5,8,8-tetramethyl-5,6,7,8-tetrahydro-naphthalen-2-yl)-3-methyl-octa-2,4,6-trienoic acid] | – | – | – | – | – | –
3 | 54 | 9 | 1800 | > 10000 | 22 | – | – | – | – | – | – | 452 | 115 | CCCOc1cc2c(cc1C(=C/C=C/C(C)=C/C(=O)O)C(F)(F)F)C(C)(C)CCC2(C)C (stereo in doubt) [Compound 7, (2E,4E,6Z)-8,8,8-Trifluoro-3-methyl-7-(5,5,8,8-tetramethyl-3-propoxy-5,6,7,8-tetrahydro-naphthalen-2-yl)-octa-2,4,6-trienoic acid] | – | – | – | – | – | –
4 | 67 | 15 | > 10000 | > 10000 | 14 | 25 | 17 | 97 | 30 | 10 | 17 | 372 | 68 | CCOc1cc2c(cc1\C(=C/C=C/C(C)=C/C(=O)O)C(F)(F)F)C(C)(C)CCC2(C)C [Compound 6, (2E,4E,6Z)-7-(3-Ethoxy-5,5,8,8-tetramethyl-5,6,7 8-tetrahydro-naphthalen-2-yl)-8,8,8-trifluoro-3-methyl-octa-2,4,6-trienoic acid] | 561 ± 159 | 350 ± 69 | 442 ± 164 | 240 ± 192 | 483 ± 175 | –

Row | Compound | EC50 (RARβ [1]) [nM] | RAR β transactivation efficacy as a percentage compared to the standard compound (RARβ [1]) [%] | Ki (RARα) [nM] | Ki (RARγ [2]) [nM] | Ki (RXRα [3]) [nM] | EC50 (RXRγ) [nM] | RXR γ transactivation efficacy as a percentage compared to the standard compound (RXRγ) [%] | EC50 (RXRβ [4]) [nM] | RXR β transactivation efficacy as a percentage compared to the standard compound (RXRβ [4]) [%] | EC50 (RXRα [6]) [nM] | RXR α transactivation efficacy as a percentage compared to the standard compound (RXRα [6]) [%] | Ki (RARβ [7]) [nM] | Ki (RXRβ [8]) [nM] | Glucose Day 0 [9] [mg/dL] | Triglycerides Day 0 [9] [mg/dL] | Glucose Day 3, 3 h [9, 10] [mg/dL] | Triglycerides Day 3, 3 h [9, 10] [mg/dL] | Glucose Day 6, 3 h [9, 10] [mg/dL] | also measured
5 | CC(/C=C/C=C(c1cc2c(cc1O)C(C)(C)CCC2(C)C)C(F)(F)F)=C\C(=O)O (stereo in doubt) [Compound 4, (2E,4E,6Z)-8,8,8-Trifluoro-7-(3-hydroxy-5,5,8,8-tetramethyl-5,6,7,8-tetrahydro-naphthalen-2-yl)-3-methyl-octa-2,4,6-trienoic acid] | > 500 | ~30 | 2400 | 496 | 471 | 16 | 69 | 67 | 54 | 9 | 65 | 4400 | 2600 | – | – | – | – | – | EC50 (RARγ [5]): > 500 nM; RAR γ transactivation efficacy as a percentage compared to the standard compound (RARγ [5]; value in parentheses, relative to standard compound of U.S. Pat. No. 6,114,533): ~30%
